The values that follow come from PMC11659602, “Discovering covalent cyclic peptide inhibitors of peptidyl arginine deiminase 4 (PADI4) using mRNA-display with a genetically encoded electrophilic warhead” (Communications Chemistry, 2024).

Assay [1] deals with T1, PADI4 C645A (Homo sapiens, UniProt Q9UM07, C645A).
T1 construct: PADI4 (residues 1-663); made in house; host or cells: E. coli NiCo21(DE3)
The assay is described as follows: Intact mass spectrometry of covalent labelling. To be noted: 20 µM protein, 200 µM peptide, 1 hour at rt. Format: binding.

Assay [2] addresses T2, PADI4 (Homo sapiens, UniProt Q9UM07).
T2 construct: His6; made in house
The assay is described as follows: COLDER inhibition assay, BAEE substrate, with or without 1 h preincubation. The class given is biochemical. The note with it: for remaining activity at 0.003 µM: peptide 0.003 µM; for remaining activity at 0.01 µM: peptide 0.01 µM; for remaining activity at 3 µM: peptide 3 µM; for remaining activity at 30 µM: peptide 30 µM. The essentials:
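50 nM His-PADI4 with peptide (final 0.1× the 0.03-500 µM series), 0.6 mg/mL BSA, 10 mM CaCl2 in 50 mM HEPES, 150 mM NaCl, 2 mM DTT, pH 7.5, with or without 1 h preincubation before 10 mM BAEE. After 30 min at rt, EDTA-quenched; citrulline read colorimetrically at 540 nm; mean ± SEM, ≥2 replicates.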

Assay [3] concerns the target T2, PADI4. As to the kind of experiment: Surface plasmon resonance (SPR), single cycle kinetics. Format: binding. The essentials:
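Biotinylated His-PADI4 captured on CAP chip (~3000 RU); peptides as 5-point 3-fold series in HEPES, 150 mM NaCl, 10 mM CaCl2, 0.1% DMSO, pH 7.5, triplicate. Warhead peptides fitted two-state (k-2 = 0; Ki = k-1/k+1, kinact = k+2); others 1:1.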
For orientation: SPR reads the build-up and loss of mass on a sensor chip optically.

Assay [4] deals with T2, PADI4. The assay is described as follows: Intact mass spectrometry of covalent labelling. The note with it: 20 µM PADI4, 200 µM peptide, 1 hour at rt. The class given is binding.
For assay [5], the system named is PADI4. The note with it: cited from earlier work.
[6] abbreviates: 1 h, T=1 (1 h preincubation), read-out: PADI4 activity, dose-response data of Figure S15 (individual replicates).
Setting [7] is: T=0 (no preincubation), read-out: PADI4 activity, dose-response data of Figure S15 (individual replicates).

“Also recorded” adds a separate entry of the source. Where two headings read alike, the source gives them in different places. Where a SMILES comes first, the peptide text is derived from it. Bridges are numbered along the chain shown (N, C = ends). [ ]: non-standard residue; d: D form. Orn(fluoroacetimidoyl) = N=C(CF)NCCC[C@H](N)C(=O)O

T2 sequence (Q9UM07 whole entry): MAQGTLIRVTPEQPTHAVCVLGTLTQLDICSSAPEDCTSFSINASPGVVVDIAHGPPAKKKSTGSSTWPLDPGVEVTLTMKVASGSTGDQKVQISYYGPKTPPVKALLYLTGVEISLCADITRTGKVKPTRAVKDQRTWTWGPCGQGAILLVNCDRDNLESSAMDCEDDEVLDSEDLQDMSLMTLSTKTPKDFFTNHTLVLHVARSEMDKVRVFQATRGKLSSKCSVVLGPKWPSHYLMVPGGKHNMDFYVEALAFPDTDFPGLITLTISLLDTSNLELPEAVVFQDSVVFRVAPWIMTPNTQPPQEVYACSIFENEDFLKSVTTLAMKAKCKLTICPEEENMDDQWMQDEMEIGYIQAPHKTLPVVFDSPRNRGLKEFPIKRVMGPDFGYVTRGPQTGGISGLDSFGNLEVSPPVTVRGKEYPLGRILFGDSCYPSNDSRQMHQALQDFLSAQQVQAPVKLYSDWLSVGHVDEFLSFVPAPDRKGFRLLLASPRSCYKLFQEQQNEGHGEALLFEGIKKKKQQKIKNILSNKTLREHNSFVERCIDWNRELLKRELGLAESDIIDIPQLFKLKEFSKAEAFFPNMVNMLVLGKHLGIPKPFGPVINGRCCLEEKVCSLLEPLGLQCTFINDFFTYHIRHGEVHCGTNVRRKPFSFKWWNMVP
T1 sequence (Q9UM07 whole entry C645A, the tested form may be a part): as the sequence (Q9UM07 whole entry) above, with C645A counted along it

For `CC[C@H](C)[C@@H]1NC(=O)[C@@H](Cc2ccc(O)cc2)NC(=O)CSC[C@@H](C(=O)NCC(N)=O)NC(=O)[C@H]([C@@H](C)O)NC(=O)[C@H](C(C)C)NC(=O)[C@H](CC(=O)O)NC(=O)[C@H](CCCNC(=N)CF)NC(=O)[C@H](CC(C)C)NC(=O)[C@H](CC(=O)O)NC(=O)[C@H](Cc2c[nH]c3ccccc23)NC1=O` [cP4_13] ({CH2CO}-[dY]IWDL[Orn(fluoroacetimidoyl)]DVTCG-NH2; thioether N-10), in assay [1], the “covalent labelling of PADI4 C645A by intact MS” value was “no labelling”. Further, in assay [2] (setting [6]), the remaining activity at 0.003 µM amounted to 108%, the remaining activity at 0.01 µM turned out to be 111%, the remaining activity at 3 µM was 87.4% and the remaining activity at 30 µM worked out at 21.7%. Also, the “inhibition of PADI4 activity” value in assay [2] (COLDER, in words) is listed as “Neither peptide had strong inhibitory activity”. For the same molecule, in assay [2] (setting [7]), the remaining activity at 0.003 µM was 103%, the remaining activity at 0.01 µM is 104%, the remaining activity at 3 µM was determined as 101% and the remaining activity at 30 µM came to 86.3%. Further, the remaining activity at 0.03 µM in assay [2] (T=0 (no preincubation), peptide 0.03 µM, read-out: PADI4 activity, dose-response data of Figure S15 (individual replicates)) worked out at 101%. Moreover, the remaining activity at 0.1 µM in assay [2] (T=0 (no preincubation), peptide 0.1 µM, read-out: PADI4 activity, dose-response data of Figure S15 (individual replicates)) was 105%. In assay [2] (T=0 (no preincubation), peptide 0.3 µM, read-out: PADI4 activity, dose-response data of Figure S15 (individual replicates)), the remaining activity at 0.3 µM stood at 105%. Besides, the remaining activity at 1 µM in assay [2] (T=0 (no preincubation), peptide 1 µM, read-out: PADI4 activity, dose-response data of Figure S15 (individual replicates)) came to 102%. Also, the remaining activity at 10 µM in assay [2] (T=0 (no preincubation), peptide 10 µM, read-out: PADI4 activity, dose-response data of Figure S15 (individual replicates)) is 96.7%. Besides, in assay [3] (each replicate), the k2 / kinact came to 0.0029 s⁻¹ and the k-1 was 0.00088 s⁻¹. In assay [3] (each replicate, read-out: k2 / kinact), the kinact came out at 0.0025 s⁻¹. The “binding to PADI4 by SPR” value in assay [3] (in words) is “among some of the poorest binders”. Further, the kinact in assay [3] (two-state reaction model, k+2, read-out: SPR kinact (converted)) is 0.00267 s⁻¹. Further, the affinity in assay [3] (two-state reaction model, k-1/k+1), expressed as Ki, was 4.3 ± 3.1 µM. The “covalent labelling of PADI4 by intact MS” value in assay [4] is reported as “single; also recorded: covalently bind to C645 of PADI4”.

For the molecule `N=C(CF)NCCC[C@H](NC(=O)c1ccccc1)C(N)=O` [Fluoroamidine], the “selectivity for PADI4 over PADI1” value in assay [5] is given as “limited selectivity”.
